Data taken from the supplement of paper PMC10307832.

Columns and labels:
Assay in all cases: relative viability (nuclei count vs DMSO), 5 days (fraction); higher = more cells survive
[1] = compound: C1=CC2=C(C=C(C(=C2N=C1)O)N=NC3=CC4=C(C=C3)C=C(C=C4)S(=O)(=O)O)S(=O)(=O)O + CC(=O)c1c(C)c2cnc(Nc3ccc(N4CCNCC4)cn3)nc2n(C2CCCC2)c1=O [Palbociclib] (partner 0.5 µM)
Procedure, shortened: (§1)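 After 5 days of treatment, lung cancer cells in 1536-well plates were fixed and stained in a single step (final 0.05% Triton X-100, 1% formaldehyde, 1 ug/ml Hoechst) and their nuclei counted on 4× images. Treatment had been applied by pin tool the day after seeding as one drug alone or as a fixed anchor-drug dose with five library-drug doses (not always all listed) in √10 steps. Relative viability is the nuclei count of treated wells divided by that of vehicle wells, and values are medians of duplicate plates.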

AT-7519 + Palbociclib = compound: O=C(NC1CCNCC1)c1n[nH]cc1NC(=O)c1c(Cl)cccc1Cl [AT-7519] + CC(=O)c1c(C)c2cnc(Nc3ccc(N4CCNCC4)cn3)nc2n(C2CCCC2)c1=O [Palbociclib] (partner 0.5 µM)
Procedure, shortened: as §1

AT-7519 + Pictilisib = compound: O=C(NC1CCNCC1)c1n[nH]cc1NC(=O)c1c(Cl)cccc1Cl [AT-7519] + CS(=O)(=O)N1CCN(Cc2cc3nc(-c4cccc5[nH]ncc45)nc(N4CCOCC4)c3s2)CC1 [Pictilisib] (partner 1 µM)
Procedure, shortened: as §1

AT-7519 + Olaparib = compound: O=C(NC1CCNCC1)c1n[nH]cc1NC(=O)c1c(Cl)cccc1Cl [AT-7519] + O=C(c1cc(Cc2n[nH]c(=O)c3ccccc23)ccc1F)N1CCN(C(=O)C2CC2)CC1 [Olaparib] (partner 8 µM)
Procedure, shortened: as §1

Row | Cell Line | relative viability ([1]; first compound 0.08 µM) | relative viability ([1]; first compound 0.253 µM) | relative viability ([1]; first compound 0.8 µM) | relative viability ([1]; first compound 2.53 µM) | relative viability ([1]; first compound 8 µM) | relative viability (AT-7519 + Palbociclib; first compound 0.01 µM) | relative viability (AT-7519 + Palbociclib; first compound 0.03162 µM) | relative viability (AT-7519 + Palbociclib; first compound 0.3162 µM) | relative viability (AT-7519 + Palbociclib; first compound 1 µM) | relative viability (AT-7519 + Pictilisib; first compound 0.01 µM) | relative viability (AT-7519 + Pictilisib; first compound 0.03162 µM) | relative viability (AT-7519 + Pictilisib; first compound 0.3162 µM) | relative viability (AT-7519 + Pictilisib; first compound 1 µM) | relative viability (AT-7519 + Olaparib; first compound 0.01 µM) | relative viability (AT-7519 + Olaparib; first compound 0.03162 µM) | relative viability (AT-7519 + Olaparib; first compound 0.3162 µM) | relative viability (AT-7519 + Olaparib; first compound 1 µM)
1 | H3255 | 0.303 | 0.313 | 0.334 | 0.344 | 0.313 | 0.376 | 0.309 | 0.328 | 0.308 | 0.537 | 0.502 | 0.441 | 0.313 | 0.581 | 0.514 | 0.527 | 0.451
2 | HARA | 0.249 | 0.244 | 0.277 | 0.221 | 0.245 | 0.194 | – | 0.273 | 0.233 | 0.361 | 0.354 | 0.554 | 0.279 | 0.753 | 0.478 | 0.482 | 0.301
3 | HCC-15 | 0.759 | 0.658 | 0.737 | 0.67 | 0.723 | 0.779 | 0.717 | 0.618 | 0.537 | 0.766 | 0.764 | 0.59 | 0.323 | 0.712 | 0.772 | 0.73 | 0.355
4 | HCC-44 | 1.02 | 0.96 | 0.964 | 1.01 | 0.975 | 0.975 | 0.961 | 0.965 | 0.901 | 0.588 | 0.625 | 0.552 | 0.688 | 1.08 | 1.01 | 0.937 | 1.02
5 | HCC-78 | 0.566 | 0.463 | 0.505 | 0.45 | 0.466 | 0.423 | 0.431 | 0.611 | 0.479 | 0.208 | 0.214 | 0.146 | 0.209 | 1.01 | 0.758 | 0.806 | 0.666
6 | HCC-366 | 0.459 | 0.385 | 0.377 | 0.391 | 0.325 | 0.393 | 0.228 | 0.317 | 0.139 | 0.0989 | 0.152 | 0.111 | 0.123 | 0.409 | 0.424 | 0.281 | 0.164
7 | HCC-827 | 0.537 | 0.451 | 0.492 | 0.455 | 0.542 | 0.433 | 0.494 | 0.478 | 0.398 | 1.15 | 0.875 | 0.819 | 0.9 | 0.635 | 0.815 | 0.659 | 0.54
8 | HOP-62 | 0.481 | 0.423 | 0.42 | 0.513 | 0.499 | 0.422 | 0.465 | 0.489 | 0.489 | 0.817 | 0.742 | 0.486 | 0.293 | 0.558 | 0.248 | 0.189 | 0.373
9 | LC-2-ad | 0.573 | 0.493 | 0.499 | 0.493 | 0.528 | 0.497 | 0.466 | 0.484 | 0.372 | 0.653 | 0.366 | 0.386 | 0.158 | 0.75 | 0.726 | 0.736 | 0.622
10 | LCLC-97TM1 | 0.236 | 0.258 | 0.189 | 0.222 | 0.257 | 0.228 | 0.234 | 0.215 | 0.135 | 0.196 | 0.176 | 0.211 | 0.152 | 0.284 | 0.264 | 0.355 | 0.294
11 | LCLC-103H | 0.457 | 0.465 | 0.484 | 0.487 | 0.433 | 0.513 | 0.42 | 0.432 | 0.418 | 0.624 | 0.517 | 0.488 | 0.557 | 0.763 | 0.805 | 0.834 | 0.833
12 | LK-2 | 0.768 | 0.529 | 0.626 | 0.77 | 0.721 | 0.783 | 0.968 | 0.675 | 0.547 | 0.785 | 0.503 | 0.497 | 0.265 | 0.815 | 0.74 | 0.706 | 0.593
13 | LOU-NH91 | 0.573 | 0.524 | 0.503 | 0.559 | 0.558 | 0.491 | 0.552 | 0.524 | 0.461 | 0.551 | 0.536 | 0.516 | 0.479 | 0.911 | 0.899 | 0.931 | 0.785
14 | LU99A | 0.472 | 0.43 | 0.381 | 0.435 | 0.42 | 0.443 | 0.411 | 0.389 | 0.329 | 0.365 | 0.307 | 0.283 | 0.251 | 0.278 | 0.247 | 0.228 | 0.229
15 | LXF-289 | 0.672 | 0.551 | 0.559 | 0.608 | 0.553 | 0.597 | 0.656 | 0.527 | 0.577 | 0.819 | 0.838 | 0.787 | 0.746 | 1.09 | 1.15 | 1.02 | 1.06
16 | NCI-H23 | 0.538 | 0.471 | 0.448 | 0.574 | 0.477 | 0.594 | 0.508 | 0.482 | 0.292 | 0.534 | 0.438 | 0.428 | 0.123 | 0.368 | 0.265 | 0.327 | 0.173
17 | NCI-H322M | 0.473 | 0.462 | 0.501 | 0.454 | 0.514 | 0.501 | 0.486 | 0.419 | 0.473 | 0.565 | 0.495 | 0.473 | 0.439 | 0.746 | 0.739 | 0.249 | 0.643
18 | NCI-H358 | 0.138 | 0.134 | 0.166 | 0.134 | 0.135 | 0.138 | 0.139 | 0.108 | 0.119 | 0.294 | 0.308 | 0.239 | 0.212 | 0.608 | 0.48 | 0.36 | 0.11
